# Assay results from paper PMC4626215, “Esculentin-2CHa-Related Peptides Modulate Islet Cell Function and Improve Glucose Tolerance in Mice with Diet-Induced Obesity and Insulin Resistance” (PLoS ONE, 2015).
# Bridges are numbered along the chain shown (N, C = ends). Where no end group is shown, it is not given here.
# Experiments:
# [1] = test system: islets from NIH Swiss mice; assay: In vitro insulin release from isolated mouse islets; type: cell-based; conditions: 16.7 mM glucose; for Stimulation of insulin release from islets, fold of basal: 1 μM, 1 h; for Mouse islets (Threshold concentration): insulin release, 1 h incubation, n = 8
# Procedure: (§2) In vitro insulin-releasing effects of esculentin-2CHa and its analogues were assessed using BRIN-BD11 rat clonal β-cells and mouse islets. In the first set of experiments, BRIN-BD11 cells were incubated with the peptides in the concentration range (1 pM– 3 μM) in Krebs-Ringer bicarbonate buffer containing 5.6 mM glucose for 20 min at 37°C as previously described [15–17]. Insulin-releasing effects were also assessed using buffer supplemented with 1.4 and 16.7mm glucose concentrations and with established modulators of insulin release as previously described [15–17]. In a second set of experiments, islets from NIH Swiss mice, isolated by collagenase digestion [18, 19], were incubated with a range of concentrations of esculentin-2CHa or its analogues (0.1 nM– 1 μM) for 1 h in Krebs-Ringer bicarbonate (KRB) buffer supplemented with 1.4, 5.6 or 16.7 mM glucose. Following test incubations, aliquots of buffer were retrieved and stored at -20°C for measurement of insulin by radioimmunoassay [20].
# [2] = test system: BRIN-BD11 rat clonal β-cells; assay: In vitro insulin release from BRIN-BD11 cells; type: cell-based; conditions: 5.6 mM glucose, 20 min; for BRIN-BD11 cells (Threshold concentration): minimum concentration producing a significant increase in rate of insulin release, 37°C
# Procedure: as §2
# [3] = test system: BRIN-BD11 cells; assay: Intracellular calcium ([Ca2+]i), FLIPR calcium assay kit; type: cell-based, rat; conditions: for Intracellular Ca2+ (AUC, x 10^2 RFU): 1 μM peptide, 5 min, mean ± SEM, n = 8
# Procedure: (§1) Effects of esculentin-2CHa (1 μM) and its analogues on membrane potential and [Ca^2+]i in BRIN-BD11 cells over a period of 5 min were assessed using commercially available FLIPR membrane or calcium assay kit (Molecular Devices, USA) as previously described. Data were captured using a Flexstation 3 microplate reader equipped with automatic fluid transfer unit (Molecular Devices, USA).
# [4] = test system: BRIN-BD11 cells; assay: Membrane potential, FLIPR membrane assay kit; type: cell-based, rat; conditions: for Membrane potential (AUC, x 10^3 RFU): 1 μM peptide, 5 min, mean ± SEM, n = 8
# Procedure: as §1
# [5] = test system: BRIN-BD11 cells; conditions: 3 μM peptide (highest concentration); mean ± SEM, n = 8
# Procedure: In vitro insulin-releasing effects of esculentin-2CHa and its analogues were assessed using BRIN-BD11 rat clonal β-cells and mouse islets. In the first set of experiments, BRIN-BD11 cells were incubated with the peptides in the concentration range (1 pM– 3 μM) in Krebs-Ringer bicarbonate buffer containing 5.6 mM glucose for 20 min at 37°C as previously described. Insulin-releasing effects were also assessed using buffer supplemented with 1.4 and 16.7mm glucose concentrations and with established modulators of insulin release as previously described. In a second set of experiments, islets from NIH Swiss mice, isolated by collagenase digestion, were incubated with a range of concentrations of esculentin-2CHa or its analogues (0.1 nM– 1 μM) for 1 h in Krebs-Ringer bicarbonate (KRB) buffer supplemented with 1.4, 5.6 or 16.7 mM glucose. Following test incubations, aliquots of buffer were retrieved and stored at -20°C for measurement of insulin by radioimmunoassay. In the experiments with BRIN-BD11 cells, the release of lactate dehydrogenase (LDH) was measured as an indicator of the integrity of the plasma membrane using commercially available CytoTox 96 non-radioactive cytotoxicity assay kit (Promega, Madison, WI, USA) according to the manufacturer’s recommended protocol.
# [6] = test system: high fat fed mice; assay: Acute in vivo glucose tolerance and insulin release; set-up: species or system mouse; conditions: for Plasma glucose (AUC) / Plasma insulin (AUC): ip glucose 18 mmol/kg with peptide 75 nmol/kg, AUC 0-60 min, mean ± SEM, n = 8
# Procedure: Male National Institutes of Health (NIH) Swiss mice (Harlan Ltd, UK) were housed separately in an air-conditioned room (22 ± 2°C) with relative humidity of 51 ± 5% and a 12-hour light: 12-hour dark cycle and maintained on a high fat diet containing 45% fat, 20% protein and 35% carbohydrate (total energy 19.5 kJ/g, Dietex International Ltd, Witham, UK) for 120 days. Mice maintained on standard rodent diet containing 10% fat, 30% protein and 60% carbohydrates (total energy 12.99 kJ/g) were used as controls. Both groups of animals were allowed food and water ad libitum. All animal experiments were carried out in accordance with the UK Animals (Scientific Procedures) Act 1986 and EU Directive 2010/63EU for animal experiments. The study was approved by University of Ulster Research Ethics Committee.
# For acute in vivo studies, overnight fasted, high fat fed mice (n = 8) received an intraperitoneal injection of glucose alone (18 mmol/kg body weight) or in combination with esculentin-2CHa or its analogues (75 nmol/kg body weight). This peptide dose was selected on the basis of a pilot study that examined acute effects of different doses of esculentin-2CHa on glucose tolerance in lean mice. Blood samples were collected as described previously before injection and at times indicated in the Figures for the measurement of plasma glucose and insulin concentrations.
# Pancreatic tissues were homogenized in 20 mM Tris-HCl, 150 mM NaCl, 1 mM EDTA, 1 mM EGTA and 0.5% Triton X 100; pH 7.5 as previously described. Blood samples (approximately 150 μl), collected from the cut tip of the tail vein of unanesthetized mice at intervals indicated in the Figures were used for blood glucose measurements and determination of plasma insulin as previously described. Blood glucose was measured using a hand-held Ascencia Contour meter (Bayer Healthcare, UK). Plasma and pancreatic insulin were determined by radioimmunoassay. Plasma and pancreatic glucagon contents were determined by ELISA using commercially available kit (Millipore, MA, USA). Plasma creatinine, alanine transaminase (ALT), aspartic acid transaminase (AST) and alkaline phosphatase (ALP) were measured using commercially available kits (Randox Laboratories, UK) as indicators of renal and liver function. Plasma triglyceride and cholesterol concentrations were measured using an automated clinical chemistry analyser (I-lab 650, and reagents purchased from Instrumentation Laboratory (Warrington, UK). The assay kit for cholesterol was obtained from Randox Laboratories (Antrim, UK). Estimation of LDL cholesterol concentrations was achieved using the Friedewald equation as described previously.
# [7] = peptide 75 nmol/kg ip with glucose 18 mmol/kg
Compound,"Stimulation of insulin release from islets, fold of basal [1]",Mouse islets (Threshold concentration) [1],BRIN-BD11 cells (Threshold concentration) ([2]; n = 8),"Intracellular Ca2+ (AUC, x 10^2 RFU) [3]","Membrane potential (AUC, x 10^3 RFU) [4]",LDH release (% of control) [5],Plasma glucose (AUC) [6],Plasma insulin (AUC) [6],"Insulin-secretory response, fold of basal ([2]; 3 μM peptide)","Decrease of plasma glucose AUC versus glucose alone [6, 7]","Increase in integrated plasma insulin response versus glucose alone [6, 7]","Increase of insulin secretion, fold of basal ([2]; 10 mM, n = 8)",Increase of intracellular Ca2+ ([3]; 10 mM),Increase of membrane potential ([4]; 30 mM)
"GFSSIFRGVAKFASKGLGKDLAKLGVDLVASKISKQS [[C31S,C37S]Esculentin-2CHa, analogue with Cys31 and Cys37 replaced by serine]",2.6 fold,1 nM,10 pM,6.55±0.36 x 10^2 RFU,7.96±0.24 x 10^3 RFU,104.3±3.1 % of control,618.65±86.0^ΔΔ mmol/l.min,122.74±28.65^Δ ng/ml.min,–,–,–,–,–,–
"GFSSIFRGVAKFASKGLGKDKAKLGVDLVACKISKQC (disulfide 31-37 (inferred)) [[L21K]Esculentin-2CHa, substituted analogue of esculentin-2CHa with increased cationicity]",2.6 fold,10 nM,10 pM,6.14±0.41 x 10^2 RFU,7.78±0.31 x 10^3 RFU,100.6±2.0 % of control,598.68±35.23^ΔΔ mmol/l.min,131.12±14.25^Δ ng/ml.min,–,–,–,–,–,–
"GFSSIFRGVAKFASKGLGKDLAKLGVDLVACKISKQC (disulfide 31-37 (inferred)) [Esculentin-2CHa, frog skin host-defense peptide first isolated from Lithobates chiricahuensis; synthetic]",2.7 fold,10 nM,–,6.44±0.47 x 10^2 RFU,8.01±0.28 x 10^3 RFU,102.7±1.1 % of control,463.99 ± 46.95 mmol·min/L,165.05 ± 16.89 ng·min/mL,10.3 fold,33%,48%,–,–,–
"GFSSIFRGVAKFASKGLGKDLAKKGVDLVACKISKQC (disulfide 31-37 (inferred)) [[L24K]Esculentin-2CHa, substituted analogue of esculentin-2CHa with increased cationicity]",2.3 fold,10 nM,10 pM,6.28±0.62 x 10^2 RFU,7.87±0.19 x 10^3 RFU,101.3±3.1 % of control,662.25±32.14^ΔΔ mmol/l.min,129.89±11.02^Δ ng/ml.min,–,–,–,–,–,–
"GFSSIFRGVAKFASKGLGKKLAKLGVKLVACKISKQC (disulfide 31-37 (inferred)) [[D20K, D27K]Esculentin-2CHa, analogue with Asp20 and Asp27 replaced by L-Lysine]",1.7 fold,10 nM,100 pM,6.10±0.46 x 10^2 RFU,7.85±0.32 x 10^3 RFU,102.5±2.6 % of control,667.78±60.23^ΔΔ mmol/l.min,122.96±16.76^Δ ng/ml.min,–,–,–,–,–,–
GLP-1: incretin hormone used as positive control for islet insulin release [reference compound],2.4 fold,–,–,–,–,–,–,–,–,–,–,–,–,–
"C[C@H](N)C(=O)O [alanine, reference compound]",–,–,–,–,–,–,–,–,–,–,–,7.3 fold,4.6 fold,–
"[Cl-].[K+] [KCl, reference compound]",–,–,–,–,–,–,–,–,–,–,–,–,–,5.2 fold
